For series [1], the target named is interaction between RamR and PramA (Salmonella typhimurium, UniProt Q8ZR43). The experiment in a line: SPR inhibition of RamR binding to the 100-bp DNA fragment with the RamR-binding site. The settings on record: for inhibition at 500 µM: read-out: inhibition of the interaction between RamR and the DNA fragment.
In series [2] the target is T1, RamR (Salmonella typhimurium, UniProt Q8ZR43).
T1 construct: made in house
T1 sequence (Q8ZR43 1-193): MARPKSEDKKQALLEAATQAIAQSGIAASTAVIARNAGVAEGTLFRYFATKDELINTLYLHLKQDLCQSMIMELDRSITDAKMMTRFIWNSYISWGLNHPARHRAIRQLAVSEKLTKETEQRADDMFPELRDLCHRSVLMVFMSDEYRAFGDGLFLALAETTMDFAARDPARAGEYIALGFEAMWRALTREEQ
The experiment in a line: SPR binding of bile acids to immobilized RamR. Further details: species or system Salmonella enterica serovar Typhimurium. Here is the method: Because cholic and chenodeoxycholic acids induce ramA in a RamR-dependent manner, we hypothesized that these compounds are recognized by RamR. To test the possibility that cholic and chenodeoxycholic acids may bind to RamR, we employed surface plasmon resonance (SPR) analysis using a Biacore T200 instrument (GE Healthcare).
Dissociation was also recorded for 2 min.
(SPR reads the build-up and loss of mass on a sensor chip optically.)

The subject of series [3] is ramA mRNA levels in ∆ramR Salmonella strain. The format is cell-based, Salmonella enterica serovar Typhimurium. The conditions noted are these: LB broth with 5 mM bile acid, qRT-PCR. Here is the method:
(§1) The bacterial strains and the plasmids used in this study are listed in Supplementary Table 3. The S. enterica serovar Typhimurium strains were the wild-type strain ATCC14028s[21] and its ∆ramR mutant (which was produced as described previously)[22]. Bacterial strains were grown at 37 °C in Luria–Bertani broth supplemented, when appropriate, with ampicillin (100 µg/ml), kanamycin (25 µg/ml) or chloramphenicol (25 µg/ml).
(§2) Bacteria were grown until mid-log phase (OD600 of 0.6) and harvested by centrifugation. Pelleted cells were stabilized with RNAprotect Bacteria Reagent (Qiagen) and stored at −80 °C until needed. Total RNA was extracted using an RNeasy Mini kit (Qiagen). Removal of residual genomic DNA was performed using a Turbo DNA-free kit (Ambion) and checked by negative PCR amplification of the chromosomal sequence. RNA integrity was verified by electrophoresis on a 1% agarose gel. Total RNA (1.5 µg) was reverse-transcribed using random hexamers and the Superscript III First Strand Synthesis System (Applied Biosystems). The expression level of each gene of interest was calculated as the average of the results from three independent cDNA samples. For each cDNA sample and each gene, qRT-PCR runs were performed in duplicated wells and the primers used for qRT-PCR are listed in Supplementary Table 4. The cycling conditions were: 95 °C for 5 min followed by 40 cycles of 95 °C for 10 s and then 60 °C for 15 s. After each run, amplification specificity and the absence of primer dimers were verified using a dissociation curve, acquired by heating the PCR products from 60 °C to 95 °C. The relative quantities of transcripts were determined using a standard curve and normalized against the geometric mean of three reference genes (gmk, gyrB and rrs).

For series [4], the system named is ramA mRNA levels in wild-type S. Typhimurium strain. Format: cell-based, Salmonella enterica serovar Typhimurium. The settings on record: LB broth with 5 mM bile acid, qRT-PCR. The protocol: as §1, §2
Background: In qPCR the cycle at which signal appears reflects the starting amount.

Series [5] deals with the molecule itself. Kind of series: crystal structure; co-crystals of RamR with a 5-fold molar excess of cholic or chenodeoxycholic acid; hanging drops, vapor diffusion, 25 °C; 20 mM sodium phosphate (pH 6.6), 75 mM NaCl, 2 mM DTT.

As for `C[C@H](CCC(=O)O)[C@H]1CC[C@H]2[C@@H]3[C@H](O)C[C@@H]4C[C@H](O)CC[C@]4(C)[C@H]3C[C@H](O)[C@]12C` [cholic acid, 3α, 7α, 12α-trihydroxy-5β-cholan-24-oic acid], in series [1], the IC50 is 33 µM and the inhibition at 500 µM was not below 90%. Besides, the Kd in series [2] is 60.5 µM. Moreover, the “fold difference in ramA mRNA levels relative to the control in the same strain” value in series [3] amounted to 1.6 fold.

`C[C@H](CCC(=O)O)[C@H]1CC[C@H]2[C@@H]3[C@H](O)C[C@@H]4C[C@H](O)CC[C@]4(C)[C@H]3CC[C@]12C` [chenodeoxycholic acid, 3α, 7α-dihydroxy-5β-cholan-24-oic acid]: in series [1], the concentration for half-maximal inhibition (IC50) came to 19.2 µM and the inhibition at 500 µM is not below 90%. In series [2], this molecule yielded a Kd of 65.3 µM. Moreover, the “fold difference in ramA mRNA levels relative to the control in the same strain” value in series [3] is 0.8 fold.

Take `C[C@H](CCC(=O)O)[C@H]1CC[C@H]2[C@@H]3CC[C@@H]4C[C@H](O)CC[C@]4(C)[C@H]3C[C@H](O)[C@]12C` [deoxycholic acid, 3α, 12αdihydroxy-5β-cholan-24-oic acid]: in series [1], the IC50 was determined as 318 µM and the inhibition at 500 µM is approximately 50%. Moreover, the “fold difference in ramA mRNA levels relative to the control in the same strain” value in series [3] is 2.7 fold. Moreover, the “fold difference in ramA mRNA levels relative to the control in the same strain” value in series [4] stood at 1.7 fold.

B1: RamR (natural protein, Salmonella enterica serovar Typhimurium)
chain: ARPKSEDKKQALLEAATQAIAQSGIAASTAVIARNAGVAEGTLFRYFATKDELINTLYLHLKQDLCQSMIMELDRSITDAKMMTRFIWNSYISWGLNHPARHRAIRQLAVSEKLTKETEQRADDMFPELRDLCHRSVLMVFMSDEYRAFGDGLFLALAETTMDFAARDPARAGEYIALGFEAMWRALTREEQ
notes: RamR, TetR-family transcriptional repressor of ramA, Salmonella enterica serovar Typhimurium; ligand-free structure PDB 3VVX; also called multidrug resistance regulator RamR; local transcriptional repressor RamR
As for B1, in series [5], the binding result is listed as “binds”.

What is called IC50 is the concentration needed to halve the response being measured. A lower IC50 goes with greater potency in that assay. One may read the inhibition as the change of the read-out against control, counted positive when it falls. In general, Kd refers to the constant that tells how readily two partners part at equilibrium. A low value points to tighter binding.

Values taken from PMC6336783, “Crystal structure of the multidrug resistance regulator RamR complexed with bile acids” (Scientific Reports, 2019).
